Laboratory results: the supplement of paper PMC10307832

Assays:
Test in all cases: relative viability (nuclei count vs DMSO), 5 days (fraction); higher = more cells survive
[1] = compound: CC1(C)CCC(CN2CCN(c3ccc(C(=O)NS(=O)(=O)c4ccc(NCC5CCOCC5)c([N+](=O)[O-])c4)c(Oc4cnc5[nH]ccc5c4)c3)CC2)=C(c2ccc(Cl)cc2)C1 [Venetoclax] + CS(=O)(=O)CCNCc1ccc(-c2ccc3ncnc(Nc4ccc(OCc5cccc(F)c5)c(Cl)c4)c3c2)o1 [Lapatinib] (partner 2 µM)
Summary of the method: (§1)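 Lung cancer cell lines, seeded in 1536-well plates, were treated the following day by pin tool with a single drug or with five library-drug doses (not always all listed) in √10 steps on top of a fixed anchor-drug dose. Cells were fixed and nuclei stained in one step after 5 days, and nuclei were counted. Relative viability is the nuclei count for treated wells divided by that for vehicle wells, reported as medians of duplicate plates.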

[2] = compound: CC1(C)CCC(CN2CCN(c3ccc(C(=O)NS(=O)(=O)c4ccc(NCC5CCOCC5)c([N+](=O)[O-])c4)c(Oc4cnc5[nH]ccc5c4)c3)CC2)=C(c2ccc(Cl)cc2)C1 [Venetoclax] + Cc1nc(Nc2ncc(C(=O)Nc3c(C)cccc3Cl)s2)cc(N2CCN(CCO)CC2)n1 [Dasatinib] (partner 0.075 µM)
Summary of the method: as §1

[3] = compound: Cn1cnc2c(F)c(Nc3ccc(Br)cc3Cl)c(C(=O)NOCCO)cc21 [Selumetinib] + C[C@@H](Oc1cc(-c2cnn(C3CCNCC3)c2)cnc1N)c1c(Cl)ccc(F)c1Cl [Crizotinib] (partner 1 µM)
Summary of the method: as §1

[4] = compound: Cn1cnc2c(F)c(Nc3ccc(Br)cc3Cl)c(C(=O)NOCCO)cc21 [Selumetinib] + O=C(c1cc(Cc2n[nH]c(=O)c3ccccc23)ccc1F)N1CCN(C(=O)C2CC2)CC1 [Olaparib] (partner 8 µM)
Summary of the method: as §1

Cell Line | relative viability ([1]; first compound 0.01 µM) | relative viability ([1]; first compound 0.03162 µM) | relative viability ([1]; first compound 0.1 µM) | relative viability ([1]; first compound 0.3162 µM) | relative viability ([1]; first compound 1 µM) | relative viability ([2]; first compound 0.01 µM) | relative viability ([2]; first compound 0.03162 µM) | relative viability ([2]; first compound 0.1 µM) | relative viability ([2]; first compound 0.3162 µM) | relative viability ([2]; first compound 1 µM) | relative viability ([3]; first compound 0.02 µM) | relative viability ([3]; first compound 0.06325 µM) | relative viability ([3]; first compound 0.2 µM) | relative viability ([3]; first compound 0.6325 µM) | relative viability ([4]; first compound 0.02 µM) | relative viability ([4]; first compound 0.06325 µM) | relative viability ([4]; first compound 0.2 µM) | relative viability ([4]; first compound 0.6325 µM)
NCI-H661 | 0.519 | 0.615 | 0.491 | 0.5 | 0.487 | 0.809 | 1.04 | 0.871 | 0.995 | 0.888 | 1.25 | 0.945 | 1.07 | 1.23 | 0.808 | 0.722 | 0.696 | 0.727
HCC-827 | 0.234 | 0.216 | 0.174 | 0.191 | 0.233 | 0.336 | 0.368 | 0.34 | 0.33 | 0.334 | 0.945 | 0.913 | 0.869 | 0.83 | 0.705 | 0.672 | 0.681 | 0.719
NCI-H1915 | 0.966 | 0.935 | 0.918 | 0.926 | 0.9 | 0.303 | 0.301 | 0.311 | 0.297 | 0.32 | 0.876 | 0.849 | 0.677 | 0.467 | 0.259 | 0.248 | 0.214 | 0.192
RERF-LC-KJ | 0.813 | 0.844 | 0.838 | 0.832 | 0.832 | 0.62 | 0.84 | 0.784 | 0.779 | 0.675 | 0.844 | 0.842 | 0.788 | 0.77 | 0.878 | 0.896 | 0.889 | 0.892
NCI-H3122 | 1.15 | 1.04 | 1.05 | 0.986 | 1.05 | 0.811 | 0.757 | 0.885 | 0.786 | 0.817 | 0.238 | 0.234 | 0.23 | 0.236 | 0.609 | 0.571 | 0.563 | 0.565
NCI-H2347 | 0.948 | 0.949 | 0.983 | 0.872 | 0.922 | 0.328 | 0.318 | 0.322 | 0.309 | 0.268 | 0.771 | 0.645 | 0.42 | 0.511 | 0.386 | 0.467 | 0.403 | 0.355
NCI-H1651 | 0.92 | 0.885 | 0.747 | 0.905 | 0.764 | 0.474 | 0.43 | 0.383 | 0.409 | 0.43 | 0.973 | 0.8 | 0.821 | 0.766 | 0.189 | 0.201 | 0.182 | 0.171
EKVX | 0.191 | 0.22 | 0.219 | 0.193 | 0.185 | 0.576 | 0.641 | 0.437 | 0.567 | 0.47 | 0.909 | 0.889 | 0.614 | 0.639 | 0.777 | 0.741 | 0.643 | 0.629
NCI-H1437 | 0.766 | 0.873 | 0.758 | 0.742 | 0.703 | 0.508 | 0.494 | 0.274 | 0.44 | 0.478 | 0.922 | 0.896 | 0.829 | 0.561 | 0.665 | 0.58 | 0.549 | 0.47
NCI-H23 | 1.11 | 1.14 | 0.942 | 1.12 | 0.984 | 0.664 | 0.781 | 0.636 | 0.706 | 0.628 | 0.583 | 0.47 | 0.328 | 0.406 | 0.283 | 0.312 | 0.267 | 0.293
EPLC-272H |  | 0.87 | 0.89 | 1.08 | 0.921 | 0.399 | 0.379 | 0.352 | 0.36 | 0.346 | 0.877 | 0.846 | 0.707 | 0.731 | 0.531 | 0.512 | 0.519 | 0.575
NCI-H358 | 0.502 | 0.452 | 0.412 | 0.499 | 0.468 | 0.309 | 0.17 | 0.15 | 0.158 | 0.161 | 0.467 | 0.368 | 0.326 | 0.319 | 0.463 | 0.367 | 0.282 | 0.207
H3255 | 0.268 | 0.263 | 0.195 | 0.282 | 0.319 | 0.367 | 0.399 | 0.373 | 0.446 | 0.404 | 0.879 | 0.96 | 0.88 | 0.802 | 0.554 | 0.586 | 0.603 | 0.536
SK-LU-1 | 0.907 | 1.1 | 0.859 | 0.955 | 0.893 | 0.251 | 0.168 | 0.192 | 0.191 | 0.181 | 0.922 | 0.881 | 0.828 | 0.46 | 0.467 | 0.459 | 0.401 | 0.335
NCI-H727 | 0.904 | 1 | 0.857 | 0.791 | 0.753 | 0.421 | 0.357 | 0.35 | 0.415 | 0.447 | 0.558 | 0.348 | 0.316 | 0.255 | 0.665 | 0.558 | 0.383 | 0.431
PC-3 [JPC-3] | 0.474 | 0.474 | 0.434 | 0.465 | 0.475 | 0.863 | 0.991 | 0.995 | 1.01 | 0.942 | 0.98 | 0.904 | 0.905 | 0.774 | 1.03 | 1.07 | 0.992 | 0.854
COR-L 105 | 0.418 | 0.384 | 0.326 | 0.355 | 0.367 | 0.42 | 0.364 | 0.296 | 0.462 | 0.377 | 0.855 | 0.689 | 0.714 | 0.635 | 0.73 | 0.727 | 0.687 | 0.582
NCI-H322M | 0.659 | 0.601 | 0.552 | 0.533 | 0.57 | 0.291 | 0.239 | 0.237 | 0.246 | 0.24 | 0.708 | 0.807 | 0.796 | 0.828 | 0.662 | 0.63 | 0.564 | 0.599
